In US20230203060A1 (GENFLEET THERAPEUTICS (SHANGHAI) INC., priority 2020, published 2023) one finds IC50 data, which are given here for 32 compounds.

In the assay the target is T1, KRAS G12C (Homo sapiens, UniProt P01116, G12C).
T1 construct: purchased Reactionbiology
T1 sequence (P01116 1-188 isoform P01116-2 G12C): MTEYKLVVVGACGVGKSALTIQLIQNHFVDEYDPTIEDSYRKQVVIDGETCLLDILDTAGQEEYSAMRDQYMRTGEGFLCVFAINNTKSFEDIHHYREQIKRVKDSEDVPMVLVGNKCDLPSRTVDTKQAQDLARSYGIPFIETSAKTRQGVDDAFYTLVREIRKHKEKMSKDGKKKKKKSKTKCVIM
As to the kind of experiment: KRAS G12C NEA-HTRF experiment (SOS1-catalyzed displacement of GDP by GTP). Type of assay: biochemical. An outline of the steps:
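His-tagged KRAS G12C preloaded with DY647-GDP was preincubated 15 min at 20 °C with compound, then exchanged with SOS1 (0.2 μM working solution) and GTP (200 μM working solution) for 2 h at 20 °C in the dark. HTRF 665/615 nm ratio with anti-His-Tb was normalised to T0 and no-compound controls; IC50 by four-parameter fit.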
(In TR-FRET formats the signal depends on donor and acceptor labels being close together.)
With `C=CC(=O)N1CCN2C(=O)c3c(N4CC(N(C)C)CC4(C)C)nc(-c4cccc(F)c4F)c(Cl)c3OC[C@H]2C1` (single isomer, unassigned) [Z473-2], the IC50 (as a rule, the point on the concentration scale where inhibition reaches its midpoint) came to 76.8 nM.

Turning to `C=CC(=O)N1CCN2C(=O)c3c(N4C[C@@H](N(C)C)CC4(C)C)nc(-c4cccc(F)c4F)c(Cl)c3OC[C@H]2C1` [Z473-1, (R)-8-acryloyl-4-chloro-3-(2,3-difluorophenyl)-1-((S)-4-(dimethylamino)-2,2-dimethylpyrrolidin-1-yl)-6,6a,7,8,9,10-hexahydro-12H-pyrazino[2,1-c]pyrido[3,4-f][1,4]oxazepin-12-one], the half-maximal inhibitory concentration (IC50) stood at 105 nM. As for `C=CC(=O)N1CCN2C(=O)c3c(N4CC(O)CC4(C)C)nc(-c4ccccc4Cl)c(F)c3OC[C@H]2C1` (stereo partly drawn) [Z414-1, (6aR)-8-acryloyl-3-(2-chlorophenyl)-4-fluoro-1-(4-hydroxy-2,2-dimethylpyrrolidin-1-yl)-6,6a,7,8,9,10-hexahydro-12H-pyrazino[2,1-c]pyrido[3,4-f][1,4]oxazepin-12-one], the figure is 86.6 nM; as for `C=CC(=O)N1CCN2C(=O)c3c(N4C[C@H](N5CC(C#N)C5)CC4(C)C)nc(-c4ccccc4F)c(Cl)c3OC[C@H]2C1` (single isomer, unassigned) [Z637-1], 343 nM; as for `C=CC(=O)N1CCN2C(=O)c3c(N4C[C@@H](N(C)C)CC4(C)C)nc(-c4ccccc4F)c(Cl)c3OC[C@H]2C1` [Z453-1, (R)-8-acryloyl-4-chloro-1-((S)-4-(dimethylamino)-2,2-dimethylpyrrolidin-1-yl)-3-(2-fluorophenyl)-6,6a,7,8,9,10-hexahydro-12H-pyrazino[2,1-c]pyrido[3,4-f][1,4]oxazepin-12-one], 43.6 nM.

Compound `C=CC(=O)N1CCN2C(=O)c3c(N4CCN(C)C[C@@H]4C)nc(-c4c(O)cccc4Cl)c(Cl)c3OC[C@H]2C1` [Z452, (6aR)-8-acryloyl-4-chloro-3-(2-chloro-6-hydroxyphenyl)-1-((S)-2,4-dimethylpiperazin-1-yl)-6,6a,7,8,9,10-hexahydro-12H-pyrazino[2,1-c]pyrido[3,4-f][1,4]oxazepin-12-one] gave an IC50 of 46.9 nM.

For the compound `C=CC(=O)N1CCN2C(=O)c3c(N4CCN(C)C[C@@H]4C)nc(-c4c(O)cccc4F)c(Cl)c3OC[C@H]2C1` [Z51, (6aR)-8-acryloyl-4-chloro-1-((S)-2,4-dimethylpiperazin-1-yl)-3-(2-fluoro-6-hydroxyphenyl)-6,6a,7,8,9,10-hexahydro-12H-pyrazino[2,1-c]pyrido[3,4-f][1,4]oxazepin-12-one], the IC50 amounted to 142 nM. The value for `C=CC(=O)N1CCN2C(=O)c3c(N4CCOC[C@@H]4C)nc(-c4c(O)cccc4F)c(Cl)c3OC[C@H]2C1` [Z32] was 142 nM. As for `C=CC(=O)N1CCN2C(=O)c3c(N4CCC[C@@]4(C)C(=O)NC)nc(-c4c(O)cccc4F)c(Cl)c3OC[C@H]2C1` [Z462, (2S)-1-((6aR)-8-acryloyl-4-chloro-3-(2-fluoro-6-hydroxyphenyl)-12-oxo-6,6a,7,8,9,10-hexahydro-12H-pyrazino[2,1-c]pyrido[3,4-f][1,4]oxazepin-1-yl)-N,2-dimethylpyrrolidine-2-carboxamide], the figure is 131 nM; as for `C=CC(=O)N1CCN2C(=O)c3c(N4C[C@@H](N(C)CCO)CC4(C)C)nc(-c4ccccc4F)c(Cl)c3OC[C@H]2C1` (single isomer, unassigned) [Z658-1], 23.8 nM. As for `C=CC(=O)N1CCN2C(=O)c3c(N4C[C@@H](N(C)CC(F)(F)F)CC4(C)C)nc(-c4ccccc4F)c(Cl)c3OC[C@H]2C1` (single isomer, unassigned) [Z491], the figure is 15 nM. With `C=CC(=O)N1CCN2C(=O)c3c(N4C[C@@H](C(=O)O)CC4(C)C)nc(-c4c(O)cccc4F)c(Cl)c3OC[C@H]2C1` (single isomer, unassigned) [Z458-1], the concentration for half-maximal inhibition (IC50) stood at 8.8 nM. As for `C=CC(=O)N1CCN2C(=O)c3c(N4CCN(C)C[C@@H]4C)nc(-c4c(F)cccc4OC)c(F)c3OC[C@H]2C1` [Z451, (6aR)-8-acryloyl-1-((S)-2,4-dimethylpiperazin-1-yl)-4-fluoro-3-(2-fluoro-6-methoxyphenyl)-6,6 a,7,8,9,10-hexahydro-12H-pyrazino[2,1-c]pyrido[3,4-f][1,4]oxazepin-12 (6 aH)-one], the figure is 3000 nM; as for `C=CC(=O)N1CCN2C(=O)c3c(N4CC(N5CCN(C)CC5)CC4(C)C)nc(-c4c(O)cccc4F)c(Cl)c3OC[C@H]2C1` (stereo partly drawn) [Z467, (6aR)-8-acryloyl-4-chloro-1-(2,2-dimethyl-4-(4-methylpiperazin-1-yl)pyrrolidin-1-yl)-3-(2-fluoro-6-hydroxyphenyl)-6,6a,7,8,9,10-hexahydro-12H-pyrazino[2,1-c]pyrido[3,4-f][1,4]oxazepin-12-one], 7.7 nM; as for `C=CC(=O)N1CCN2C(=O)c3c(N4CCN(C)C[C@@H]4C)nc(-c4ccccc4Cl)c(Cl)c3OC[C@H]2C1` [Z461, (R)-8-acryloyl-4-chloro-3-(2-chlorophenyl)-1-((S)-2,4-dimethylpiperazin-1-yl)-6,6a,7,8,9,10-hexahydro-12H-pyrazino[2,1-c]pyrido[3,4-f][1,4]oxazepin-12-one], 331 nM.

`C=CC(=O)N1CCN2C(=O)c3c(N4C[C@H](N5CCN(C)CC5)CC4(C)C)nc(-c4c(O)cccc4F)c(Cl)c3OC[C@H]2C1` (single isomer, unassigned) [Z469-2] came in with an IC50 of 18 nM. Take `C=CC(=O)N1CCN2C(=O)c3c(N4CC(N(C)CC(F)(F)F)CC4(C)C)nc(-c4ccccc4F)c(Cl)c3OC[C@H]2C1` (mixture of isomers) [Z491a, (6aR)-8-acryloyl-4-chloro-1-(2,2-dimethyl-4-(methyl(2,2,2-trifluoroethyl)amino)pyrrolidin-1-yl)-3-(2-fluorophenyl)-6,6a,7,8,9,10-hexahydro-12H-pyrazino[2,1-c]pyrido[3,4-f][1,4]oxazepin-12-one]: the concentration for half-maximal inhibition (IC50) worked out at 15 nM.

On to `C=CC(=O)N1CCN2C(=O)c3c(N4CC[C@H](N(C)C)C4(C)C)nc(-c4ccccc4F)c(Cl)c3OC[C@H]2C1` [Z502-2, (6aR)-8-acryloyl-4-chloro-1-(3-(dimethylamino)-2,2-dimethylpyrrolidin-1-yl)-3-(2-fluorophenyl)-6,6a,7,8,9,10-hexahydro-12H-pyrazino[2,1-c]pyrido[3,4-f][1,4]oxazepin-12(6aH)-one], for which the IC50 worked out at 160 nM. The value for `C=CC(=O)N1CCN2C(=O)c3c(N4CCN(C)C[C@@H]4C)nc(-c4ccccc4F)c(Cl)c3OC[C@H]2C1` [Z407-1, (R)-8-acryloyl-4-chloro-1-((S)-2,4-dimethylpiperazin-1-yl)-3-(2-fluorophenyl)-6,6a,7,8,9,10-hexahydro-12H-pyrazino[2,1-c]pyrido[3,4-f][1,4]oxazepin-12-one] was 262 nM. `C=CC(=O)N1CCN2C(=O)c3c(N4C[C@@H](N(C)C)CC4(C)C)nc(-c4c(F)ccc(F)c4O)c(Cl)c3OC[C@H]2C1` [Z475-1, (6aR)-8-acryloyl-4-chloro-3-(3,6-difluoro-2-hydroxyphenyl)-1-((S)-4-(dimethylamino)-2,2-dimethylpyrrolidin-1-yl)-6,6a,7,8,9,10-hexahydro-12H-pyrazino[2,1-c]pyrido[3,4-f][1,4]oxazepin-12-one] registered an IC50 of 22.5 nM. The value for `C=CC(=O)N1CCN2C(=O)c3c(N4C[C@@H](N5CCN(C)CC5)C[C@@H]4C)nc(-c4ccccc4F)c(Cl)c3OC[C@H]2C1` [Z470-2] was 24.7 nM; that for `C=CC(=O)N1CCN2C(=O)c3c(N4C[C@@H](N(C)CCF)CC4(C)C)nc(-c4ccccc4F)c(Cl)c3OC[C@H]2C1` (single isomer, unassigned) [Z660-1] was 11.3 nM; that for `C=CC(=O)N1CCN2C(=O)c3c(N4CCC[C@@H]4C)nc(-c4c(O)cccc4F)c(Cl)c3OC[C@H]2C1` [Z49, (6aR)-8-acryloyl-1-((S)-2-methylpyrrolidin-1-yl)-4-chloro-3-(2-fluoro-6-hydroxyphenyl)-6,6a,7,8,9,10-hexahydro-12H-pyrazino[2,1-c]pyrido[3,4-f][1,4]oxazepin-12-one] was 66 nM. The value for `C=CC(=O)N1CCN2C(=O)c3c(N4C[C@H](N(C)CCOC)CC4(C)C)nc(-c4ccccc4F)c(Cl)c3OC[C@H]2C1` (single isomer, unassigned) [Z406-1] was 31 nM; that for `C=CC(=O)N1CCN2C(=O)c3c(N4C[C@@H](N5CCN(C)CC5)CC4(C)C)nc(-c4c(F)cccc4Cl)c(Cl)c3OC[C@H]2C1` (single isomer, unassigned) [Z635-1] was 22.7 nM; that for `C=CC(=O)N1CCN2C(=O)c3c(N4CC(O)CC4(C)C)nc(-c4c(F)cccc4OC)c(F)c3OC[C@H]2C1` (single isomer, unassigned) [Z450] was 147 nM. The value for `C=CC(=O)N1CCN2C(=O)c3c(N4CCN(C)[C@@H](C)[C@H]4C)nc(-c4ccccc4F)c(Cl)c3OC[C@H]2C1` (single isomer, unassigned) [Z465-1] was 144 nM; that for `C=CC(=O)N1CCN2C(=O)c3c(N4C[C@@H](NCC(F)(F)F)CC4(C)C)nc(-c4ccccc4F)c(Cl)c3OC[C@H]2C1` (single isomer, unassigned) [Z662-1] was 23.4 nM; that for `C=CC(=O)N1CCN2C(=O)c3c(N4CC(N5CCOCC5)CC4(C)C)nc(-c4ccccc4F)c(Cl)c3OC[C@H]2C1` (single isomer, unassigned) [Z468-1] was 35 nM. For `C=CC(=O)N1CCN2C(=O)c3c(N4C[C@@H](N5CCN(C)CC5)CC4(C)C)nc(-c4ccccc4F)c(F)c3OC[C@H]2C1` (single isomer, unassigned) [Z474-1], the IC50 was 89 nM.

`C=CC(=O)N1CCN2C(=O)c3c(N4C[C@@H](N(C)C)CC4(C)C)nc(-c4cccc(C)c4F)c(Cl)c3OC[C@H]2C1` (single isomer, unassigned) [Z472-1] came in with an IC50 of 145 nM. `C=CC(=O)N1CCN2C(=O)c3c(N4C[C@@H](O)CC4(C)C)nc(-c4c(N)cccc4F)c(F)c3OC[C@H]2C1` [Z481, (6aR)-8-acryloyl-3-(2-amino-6-fluorophenyl)-4-fluoro-1-((S)-4-hydroxy-2,2-dimethylpyrrolidin-1-yl)-6,6a,7,8,9,10-hexahydro-12H-pyrazino[2,1-c]pyrido[3,4-f][1,4]oxazepin-12-one]: the IC50 was 42 nM.
